Where a SMILES comes first, the peptide text is derived from it. Bridges are numbered along the chain shown (N, C = ends). [ ]: non-standard residue; d: D form. The star is where a group is joined. NMeY = CN[C@@H](Cc1ccc(O)cc1)C(=O)O; NMeF = CN[C@@H](Cc1ccccc1)C(=O)O; OSu = O=C1CCC(=O)N1O*; GABA = NCCCC(=O)O

The target of one experiment is human transferrin receptor (hTfR) (Homo sapiens, UniProt P02786). Nature of the experiment: SPR measurement of peptide binding to hTfR.
human transferrin receptor (hTfR), sequence (P02786 whole entry): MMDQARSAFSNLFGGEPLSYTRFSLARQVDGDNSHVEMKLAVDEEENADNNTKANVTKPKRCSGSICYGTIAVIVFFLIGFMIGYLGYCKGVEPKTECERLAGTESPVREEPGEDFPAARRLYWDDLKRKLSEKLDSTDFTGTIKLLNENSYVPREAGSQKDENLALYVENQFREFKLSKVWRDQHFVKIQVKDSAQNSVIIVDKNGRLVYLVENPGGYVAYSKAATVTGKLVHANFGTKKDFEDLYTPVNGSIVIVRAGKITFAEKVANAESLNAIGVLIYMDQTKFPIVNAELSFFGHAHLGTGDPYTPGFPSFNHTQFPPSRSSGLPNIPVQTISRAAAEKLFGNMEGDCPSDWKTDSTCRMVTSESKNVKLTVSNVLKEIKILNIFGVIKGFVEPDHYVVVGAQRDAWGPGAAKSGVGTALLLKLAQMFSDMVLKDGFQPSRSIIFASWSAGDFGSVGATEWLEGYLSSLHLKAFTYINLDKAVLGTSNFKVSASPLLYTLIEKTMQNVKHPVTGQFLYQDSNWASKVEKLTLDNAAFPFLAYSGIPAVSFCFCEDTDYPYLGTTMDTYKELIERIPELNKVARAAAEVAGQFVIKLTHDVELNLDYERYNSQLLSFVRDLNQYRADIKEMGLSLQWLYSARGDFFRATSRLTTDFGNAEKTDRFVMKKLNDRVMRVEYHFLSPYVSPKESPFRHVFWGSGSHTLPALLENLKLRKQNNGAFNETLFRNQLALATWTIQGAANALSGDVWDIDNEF
Conditions: not given
From the text: Note that ND indicates No Data (here, it means that no data was obtained).
Usually Kd stands for the free concentration of one partner at which half of the binding sites on the other are occupied at equilibrium, for simple one-to-one binding. The compound `CC[C@H](C)[C@@H]1NC(=O)[C@H](Cc2ccc(O)cc2)NC(=O)[C@H](Cc2ccc(O)cc2)NC(=O)[C@H](CC(N)=O)NC(=O)[C@H](Cc2c[nH]c3ccccc23)NC(=O)[C@H](C(C)C)NC(=O)[C@H](Cc2ccccc2)N(C)C(=O)[C@H](C(C)C)NC(=O)[C@H](C)NC(=O)CSC[C@@H](C(=O)NCC(=O)NCC(=O)NCC(=O)NCC(=O)N[C@@H](CO)C(=O)N[C@@H](CO)C(=O)N[C@@H](CCCCNC(=O)C2CCC(CN3C(=O)C=CC3=O)CC2)C(N)=O)NC(=O)[C@H](Cc2ccc(O)cc2)N(C)C(=O)[C@H](Cc2ccc(O)cc2)NC(=O)[C@H](CCCNC(=N)N)NC(=O)[C@H](CCCNC(=N)N)NC(=O)[C@H]([C@@H](C)CC)NC1=O` (stereo partly drawn) [894_3m_G4S2_K(Mal)] registered an equilibrium dissociation constant (Kd) of 1 to 100 nM.

Still in this experiment, the particulars now being: measured on the naked peptide (1st to 15th amino acids, without linker) corresponding to the listed linker-attached peptide; read-out: KD value of binding to hTfR by SPR.
Turning to `CC[C@H](C)[C@@H]1NC(=O)[C@H](Cc2ccc(O)cc2)NC(=O)[C@H](Cc2ccc(O)cc2)NC(=O)[C@H](CC(N)=O)NC(=O)[C@H](Cc2c[nH]c3ccccc23)N(C)C(=O)[C@H](C(C)C)NC(=O)[C@H](Cc2ccccc2)N(C)C(=O)[C@H](C(C)C)NC(=O)[C@H](C)NC(=O)CSC[C@@H](C(=O)NCC(=O)NCC(=O)N[C@@H](CO)C(=O)NCC(=O)N[C@@H](CCC(=O)O)C(=O)N[C@@H](CO)C(=O)N[C@@H](CCCCNC(=O)C2CCC(CN3C(=O)C=CC3=O)CC2)C(N)=O)NC(=O)[C@H](Cc2ccc(O)cc2)N(C)C(=O)[C@H](Cc2ccc(O)cc2)NC(=O)[C@H](CCCNC(=N)N)NC(=O)[C@H](CCCNC(=N)N)NC(=O)[C@H]([C@@H](C)CC)NC1=O` (stereo partly drawn) [894_3m_5m_GGSGES_K(Mal)], the Kd is 1 to 100 nM. For the compound `CC[C@H](C)[C@@H]1NC(=O)[C@H](Cc2ccc(O)cc2)NC(=O)[C@H](Cc2ccc(O)cc2)NC(=O)[C@H](CC(N)=O)NC(=O)[C@H](Cc2c[nH]c3ccccc23)NC(=O)[C@H](C(C)C)NC(=O)[C@H](Cc2ccccc2)N(C)C(=O)[C@H](C(C)C)NC(=O)[C@H](C)NC(=O)CSC[C@@H](C(=O)NCC(=O)NCC(=O)N[C@@H](CCCNC(=N)N)C(=O)NCC(=O)N[C@@H](CCCNC(=N)N)C(=O)N[C@@H](CO)C(=O)N[C@@H](CCCCNC(=O)C2CCC(CN3C(=O)C=CC3=O)CC2)C(N)=O)NC(=O)[C@H](Cc2ccc(O)cc2)N(C)C(=O)[C@H](Cc2ccc(O)cc2)NC(=O)[C@H](CCCNC(=N)N)NC(=O)[C@H](CCCNC(=N)N)NC(=O)[C@H]([C@@H](C)CC)NC1=O` (stereo partly drawn) [894_3m_GGRGRS_K(Mal)], the equilibrium dissociation constant (Kd) fell in the range of 1 to 100 nM. Same read-out and setting: next, `CC[C@H](C)[C@@H]1NC(=O)[C@H](Cc2ccc(O)cc2)NC(=O)[C@H](Cc2ccc(O)cc2)NC(=O)[C@H](CC(N)=O)NC(=O)[C@H](Cc2c[nH]c3ccccc23)NC(=O)[C@H](C(C)C)NC(=O)[C@H](Cc2ccccc2)N(C)C(=O)[C@H](C(C)C)NC(=O)[C@H](C)NC(=O)CSC[C@@H](C(=O)NCC(=O)NCC(=O)N[C@H](CCC(=O)O)C(=O)NCC(=O)NCC(=O)N[C@H](CCC(=O)O)C(=O)NCC(=O)NCC(=O)N[C@H](CCC(=O)O)C(=O)NCC(=O)NCC(=O)N[C@H](CCCCNC(=O)C2CCC(CN3C(=O)C=CC3=O)CC2)C(N)=O)NC(=O)[C@H](Cc2ccc(O)cc2)N(C)C(=O)[C@H](Cc2ccc(O)cc2)NC(=O)[C@H](CCCNC(=N)N)NC(=O)[C@H](CCCNC(=N)N)NC(=O)[C@H]([C@@H](C)CC)NC1=O` (stereo partly drawn) [894_3m_Linke04_dk(Mal)]: 1 to 100 nM. The same measure, in the same setting: next, `CC[C@H](C)[C@@H]1NC(=O)[C@H](Cc2ccc(O)cc2)NC(=O)[C@H](Cc2ccc(O)cc2)NC(=O)[C@H](CC(N)=O)NC(=O)[C@H](Cc2c[nH]c3ccccc23)N(C)C(=O)[C@H](C(C)C)NC(=O)[C@H](Cc2ccccc2)NC(=O)[C@H](C(C)C)NC(=O)[C@H](C)NC(=O)CSC[C@@H](C(=O)NCC(=O)NCC(=O)N[C@@H](CCC(=O)O)C(=O)N[C@@H](CO)C(=O)N[C@@H](CCC(=O)O)C(=O)N[C@@H](CO)C(=O)N[C@@H](CCCCNC(=O)C2CCC(CN3C(=O)C=CC3=O)CC2)C(N)=O)NC(=O)[C@H](Cc2ccc(O)cc2)N(C)C(=O)[C@H](Cc2ccc(O)cc2)NC(=O)[C@H](CCCNC(=N)N)NC(=O)[C@H](CCCNC(=N)N)NC(=O)[C@H]([C@@H](C)CC)NC1=O` (stereo partly drawn) [894_5m_GGESES_K(Mal)]: < 1 nM; `CC[C@H](C)[C@@H]1NC(=O)[C@H](Cc2ccc(O)cc2)NC(=O)[C@H](Cc2ccc(O)cc2)NC(=O)[C@H](CC(N)=O)NC(=O)[C@H](Cc2c[nH]c3ccccc23)N(C)C(=O)[C@H](C(C)C)NC(=O)[C@H](Cc2ccccc2)NC(=O)[C@H](C(C)C)NC(=O)[C@H](C)NC(=O)CSC[C@@H](C(=O)NCC(=O)NCC(=O)N[C@@H](CCCNC(=N)N)C(=O)N[C@@H](CO)C(=O)N[C@@H](CCC(=O)O)C(=O)N[C@@H](CO)C(=O)N[C@@H](CCCCNC(=O)C2CCC(CN3C(=O)C=CC3=O)CC2)C(N)=O)NC(=O)[C@H](Cc2ccc(O)cc2)N(C)C(=O)[C@H](Cc2ccc(O)cc2)NC(=O)[C@H](CCCNC(=N)N)NC(=O)[C@H](CCCNC(=N)N)NC(=O)[C@H]([C@@H](C)CC)NC1=O` (stereo partly drawn) [894_5m_GGRSES_K(Mal)]: < 1 nM.

On to `CC[C@H](C)[C@@H]1NC(=O)[C@H](Cc2ccc(O)cc2)NC(=O)[C@H](Cc2ccc(O)cc2)NC(=O)[C@H](CC(N)=O)NC(=O)[C@H](Cc2c[nH]c3ccccc23)N(C)C(=O)[C@H](C(C)C)NC(=O)[C@H](Cc2ccccc2)NC(=O)[C@H](C(C)C)NC(=O)[C@H](C)NC(=O)CSC[C@@H](C(=O)NCC(=O)NCC(=O)N[C@@H](CO)C(=O)NCC(=O)N[C@@H](CCC(=O)O)C(=O)N[C@@H](CO)C(=O)N[C@@H](CCCCNC(=O)C2CCC(CN3C(=O)C=CC3=O)CC2)C(N)=O)NC(=O)[C@H](Cc2ccc(O)cc2)N(C)C(=O)[C@H](Cc2ccc(O)cc2)NC(=O)[C@H](CCCNC(=N)N)NC(=O)[C@H](CCCNC(=N)N)NC(=O)[C@H]([C@@H](C)CC)NC1=O` (stereo partly drawn) [894_5m_GGSGES_K(Mal)], for which the Kd is < 1 nM. In the case of `CC[C@H](C)[C@@H]1NC(=O)[C@H](Cc2ccc(O)cc2)NC(=O)[C@H](Cc2ccc(O)cc2)NC(=O)[C@H](CC(N)=O)NC(=O)[C@H](Cc2c[nH]c3ccccc23)N(C)C(=O)[C@H](C(C)C)NC(=O)[C@H](Cc2ccccc2)NC(=O)[C@H](C(C)C)NC(=O)[C@H](C)NC(=O)CSC[C@@H](C(=O)NCC(=O)N[C@@H](CO)C(=O)N[C@@H](CO)C(=O)NCC(=O)N[C@@H](CO)C(=O)N[C@@H](CO)C(=O)N[C@@H](CCCCNC(=O)C2CCC(CN3C(=O)C=CC3=O)CC2)C(N)=O)NC(=O)[C@H](Cc2ccc(O)cc2)N(C)C(=O)[C@H](Cc2ccc(O)cc2)NC(=O)[C@H](CCCNC(=N)N)NC(=O)[C@H](CCCNC(=N)N)NC(=O)[C@H]([C@@H](C)CC)NC1=O` (stereo partly drawn) [894_5m_GSSGSS_K(Mal)], the Kd is < 1 nM.

Still in this experiment, the particulars now being: naked peptide (1st to 15th amino acids, without linker part) corresponding to the listed linker-attached peptide; read-out: SPR of naked peptide (KD for binding to hTfR).
For the compound `CC[C@H](C)[C@@H]1NC(=O)[C@H](Cc2ccc(O)cc2)NC(=O)[C@H](Cc2ccc(O)cc2)NC(=O)[C@H](CC(N)=O)NC(=O)[C@H](Cc2c[nH]c3ccccc23)NC(=O)[C@H](C(C)C)NC(=O)[C@H](Cc2ccccc2)N(C)C(=O)[C@H](C(C)C)NC(=O)[C@H](C)NC(=O)CSC[C@@H](C(=O)NCC(=O)NCC(=O)N[C@@H](CCC(N)=O)C(=O)NCC(=O)N[C@@H](CCC(N)=O)C(=O)N[C@@H](CO)C(=O)NCC(=O)NCC(=O)N[C@@H](CCC(N)=O)C(=O)NCC(=O)N[C@@H](CCC(N)=O)C(=O)N[C@@H](CO)C(=O)NCCCC(=O)ON2C(=O)CCC2=O)NC(=O)[C@H](Cc2ccc(O)cc2)N(C)C(=O)[C@H](Cc2ccc(O)cc2)NC(=O)[C@H](CCCNC(=N)N)NC(=O)[C@H](CCCNC(=N)N)NC(=O)[C@H]([C@@H](C)CC)NC1=O` [894_3m_GGQGQSx2_gAbu(NHS)] ({CH2CO}-AV[NMeF]VWNYYIIRRY[NMeY]CGGQGQSGGQGQS[GABA]-OSu; thioether N-15), the Kd was in the range of 1 to 100 nM.

In the case of `CC[C@H](C)[C@@H]1NC(=O)[C@H](Cc2ccc(O)cc2)NC(=O)[C@H](Cc2ccc(O)cc2)NC(=O)[C@H](CC(N)=O)NC(=O)[C@H](Cc2c[nH]c3ccccc23)N(C)C(=O)[C@H](C(C)C)NC(=O)[C@H](Cc2ccccc2)NC(=O)[C@H](C(C)C)NC(=O)[C@H](C)NC(=O)CSC[C@@H](C(=O)NCCOCCOCCOCCOCCOCCOCCOCCOCCC(=O)N[C@@H](CCCCNC(=O)C2CCC(CN3C(=O)C=CC3=O)CC2)C(N)=O)NC(=O)[C@H](Cc2ccc(O)cc2)N(C)C(=O)[C@H](Cc2ccc(O)cc2)NC(=O)[C@H](CCCNC(=N)N)NC(=O)[C@H](CCCNC(=N)N)NC(=O)[C@H]([C@@H](C)CC)NC1=O` (stereo partly drawn) [894_5m_PEG08_K(Mal)], the dissociation constant (Kd) is < 1 nM.

Consider `CC[C@H](C)[C@@H]1NC(=O)[C@H](Cc2ccc(O)cc2)NC(=O)[C@H](Cc2ccc(O)cc2)NC(=O)[C@H](CC(N)=O)NC(=O)[C@H](Cc2c[nH]c3ccccc23)NC(=O)[C@H](C(C)C)NC(=O)[C@H](Cc2ccccc2)N(C)C(=O)[C@H](C(C)C)NC(=O)[C@H](C)NC(=O)CSC[C@@H](C(=O)NCC(=O)NCC(=O)NCC(=O)NCC(=O)N[C@@H](CO)C(=O)N[C@@H](CO)C(=O)N[C@@H](CCCCn2cc(CN3C(=O)C=CC3=O)nn2)C(N)=O)NC(=O)[C@H](Cc2ccc(O)cc2)N(C)C(=O)[C@H](Cc2ccc(O)cc2)NC(=O)[C@H](CCCNC(=N)N)NC(=O)[C@H](CCCCN)NC(=O)[C@H]([C@@H](C)CC)NC1=O` [894_11K_3MeF_G4S2_KTrzMal], for which the equilibrium dissociation constant (Kd) lay within 1 to 100 nM. Regarding `CC[C@H](C)[C@@H]1NC(=O)[C@H](Cc2ccc(O)cc2)NC(=O)[C@H](Cc2ccc(O)cc2)NC(=O)[C@H](CC(N)=O)NC(=O)[C@H](Cc2c[nH]c3ccccc23)N(C)C(=O)[C@H](C(C)C)NC(=O)[C@H](Cc2ccccc2)N(C)C(=O)[C@H](C(C)C)NC(=O)[C@H](C)NC(=O)CSC[C@@H](C(=O)NCC(=O)NCC(=O)NCC(=O)NCC(=O)N[C@@H](CO)C(=O)N[C@@H](CO)C(=O)N[C@@H](CCCCn2cc(CN3C(=O)C=CC3=O)nn2)C(N)=O)NC(=O)[C@H](Cc2ccc(O)cc2)N(C)C(=O)[C@H](Cc2ccc(O)cc2)NC(=O)[C@H](CCCNC(=N)N)NC(=O)[C@H](CCCCN)NC(=O)[C@H]([C@@H](C)CC)NC1=O` [894_11K_3Me_5Me_G4S2_KTrzMal], the dissociation constant Kd lay in the range of 1 to 100 nM.

Values taken from patent US20240366775A1, “HUMAN TRANSFERRIN RECEPTOR BINDING ANTIBODY-PEPTIDE CONJUGATE” (PEPTIDREAM INC., priority 2021, published 2024).
